ChEMBL document CHEMBL1201862, “PubChem BioAssay data set” (2004)
Active and inactive are the calls of the source.

Experiments:
Assay type in all cases: functional
[1] = target: Activated CDC42 kinase 1 (Homo sapiens, UniProt Q07912); test: Navigating the Kinome. Panel member name: ACK1
[2] = target: Serine/threonine-protein kinase pim-1 (Homo sapiens, UniProt P11309)
[3] = target: Dual specificity tyrosine-phosphorylation-regulated kinase 1B (Homo sapiens, UniProt Q9Y463); test: Navigating the Kinome. Panel member name: DYRK1B
[4] = target: Macrophage colony-stimulating factor 1 receptor (Homo sapiens, UniProt P07333);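 note: value comes from the Navigating the Kinome screening panel, CSF1R member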
[5] = target: Casein kinase I isoform alpha (Homo sapiens, UniProt P48729)
[6] = target: Cyclin-dependent kinase 8 (Homo sapiens, UniProt P49336); test: Navigating the Kinome. Panel member name: CDK8
[7] = target: Activin receptor type-1 (Homo sapiens, UniProt Q04771); test: Navigating the Kinome. Panel member name: ACVR1
[8] = target: Fibroblast growth factor receptor 1 (Homo sapiens, UniProt P11362)
[9] = target: Aurora kinase B (Homo sapiens, UniProt Q96GD4)
[10] = target: Tyrosine-protein kinase JAK2 (Homo sapiens, UniProt O60674);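 note: JAK2 tested as one member of a kinase panel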
[11] = target: Inhibitor of nuclear factor kappa-B kinase subunit epsilon (Homo sapiens, UniProt Q14164); test: Navigating the Kinome. Panel member name: IKBKE
[12] = target: Aurora kinase A (Homo sapiens, UniProt O14965);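 note: value from the Navigating the Kinome kinase panel profiling, panel entry STK6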
[13] = target: Serine/threonine-protein kinase D3 (Homo sapiens, UniProt O94806);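 note: determined within a kinase panel screen, with PRKCN as the panel member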
[14] = target: cAMP-dependent protein kinase catalytic subunit alpha (Homo sapiens, UniProt P17612)
[15] = target: Death-associated protein kinase 3 (Homo sapiens, UniProt O43293);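 note: measured as one member of a kinome-wide profiling panel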
[16] = target: Leukocyte tyrosine kinase receptor (Homo sapiens, UniProt P29376); test: Navigating the Kinome. Panel member name: LTK
[17] = target: Serine/threonine-protein kinase PAK 4 (Homo sapiens, UniProt O96013);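 note: value obtained within a kinome profiling panel in which PAK4 was one of the panel members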
[18] = target: cAMP-dependent protein kinase catalytic subunit PRKX (Homo sapiens, UniProt P51817)
[19] = target: Cyclin-dependent kinase 9 (Homo sapiens, UniProt P50750);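 note: value from the CDK9 entry of a kinome-spanning kinase panel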
[20] = target: Glycogen synthase kinase-3 beta (Homo sapiens, UniProt P49841);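 note: value comes from a broad kinome profiling panel, with GSK3B as the panel member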
[21] = target: Serine/threonine-protein kinase Nek2 (Homo sapiens, UniProt P51955)
[22] = target: Proto-oncogene tyrosine-protein kinase receptor Ret (Homo sapiens, UniProt P07949);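 note: measured within a kinome-wide profiling panel, RET as the panel member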
[23] = target: Hepatocyte growth factor receptor (Homo sapiens, UniProt P08581);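 note: kinase panel profiling across the kinome, with MET as the panel member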
[24] = target: Cyclin-dependent kinase 19 (Homo sapiens, UniProt Q9BWU1); test: Navigating the Kinome. Panel member name: CDC2L6
[25] = target: Tyrosine-protein kinase ABL1 (Homo sapiens, UniProt P00519)
[26] = target: Platelet-derived growth factor receptor alpha (Homo sapiens, UniProt P16234); test: Navigating the Kinome. Panel member name: PDGFRA
[27] = target: Dual specificity protein kinase CLK4 (Homo sapiens, UniProt Q9HAZ1)
[28] = target: Serine/threonine-protein kinase TBK1 (Homo sapiens, UniProt Q9UHD2); test: Navigating the Kinome. Panel member name: TBK1
[29] = target: Leucine-rich repeat serine/threonine-protein kinase 2 (Homo sapiens, UniProt Q5S007);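 note: value from a broad kinome-wide panel profiling study in which LRRK2 was one of the kinases tested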
[30] = target: Vascular endothelial growth factor receptor 2 (Homo sapiens, UniProt P35968)
[31] = target: Protein kinase C theta type (Homo sapiens, UniProt Q04759); test: Navigating the Kinome. Panel member name: PRKCQ
[32] = target: Mitogen-activated protein kinase kinase kinase kinase 4 (Homo sapiens, UniProt O95819)
[33] = target: Mitogen-activated protein kinase 8 (Homo sapiens, UniProt P45983);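 note: value comes from one member of a kinome-wide kinase profiling panel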
[34] = target: ALK tyrosine kinase receptor (Homo sapiens, UniProt Q9UM73);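 note: ALK tested as one member of a kinase panel screen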
[35] = target: Serine/threonine-protein kinase TAO1 (Homo sapiens, UniProt Q7L7X3)
[36] = target: Glycogen synthase kinase-3 alpha (Homo sapiens, UniProt P49840);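 note: GSK3A result taken from a broad kinome-wide kinase panel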
[37] = target: Cyclin-dependent kinase 7 (Homo sapiens, UniProt P50613);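 note: value comes from a kinome-wide kinase profiling panel in which CDK7 is one member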
[38] = target: Tyrosine-protein kinase receptor TYRO3 (Homo sapiens, UniProt Q06418);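 note: TYRO3 value obtained as one member of a kinome-wide profiling panel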
[39] = target: Rho-associated protein kinase 1 (Homo sapiens, UniProt Q13464);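 note: measured within a broad kinome-wide panel profiling many kinases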
[40] = target: Mitogen-activated protein kinase kinase kinase kinase 2 (Homo sapiens, UniProt Q12851);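 note: measured as one member of a kinome-wide kinase panel, with MAP4K2 as the panel entry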
[41] = target: Macrophage-stimulating protein receptor (Homo sapiens, UniProt Q04912); test: Navigating the Kinome. Panel member name: MST1R
[42] = target: Dual specificity mitogen-activated protein kinase kinase 2 (Homo sapiens, UniProt P36507); test: Navigating the Kinome. Panel member name: MAP2K2
[43] = target: Calcium/calmodulin-dependent protein kinase type II subunit alpha (Homo sapiens, UniProt Q9UQM7); test: Navigating the Kinome. Panel member name: CAMK2A
[44] = target: 5'-AMP-activated protein kinase catalytic subunit alpha-1 (Homo sapiens, UniProt Q13131)
[45] = target: Dual specificity mitogen-activated protein kinase kinase 1 (Homo sapiens, UniProt Q02750); test: Navigating the Kinome. Panel member name: MAP2K1
[46] = target: LIM domain kinase 1 (Homo sapiens, UniProt P53667); test: Navigating the Kinome. Panel member name: LIMK1
[47] = target: Dual specificity protein kinase CLK2 (Homo sapiens, UniProt P49760)
[48] = target: Vascular endothelial growth factor receptor 1 (Homo sapiens, UniProt P17948);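 note: measured within a kinome-wide profiling panel, FLT1 as the panel member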
[49] = target: Serine/threonine-protein kinase Chk1 (Homo sapiens, UniProt O14757);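 note: measured as one member of a kinome-wide kinase profiling panel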
[50] = target: Dual specificity tyrosine-phosphorylation-regulated kinase 1A (Homo sapiens, UniProt Q13627);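 note: measured against DYRK1A as one member of a broad kinome profiling panel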
[51] = target: BDNF/NT-3 growth factors receptor (Homo sapiens, UniProt Q16620);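 note: NTRK2 measured as one member of a broad kinome-wide kinase profiling panel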
Sequence of BDNF/NT-3 growth factors receptor (Q16620 whole entry): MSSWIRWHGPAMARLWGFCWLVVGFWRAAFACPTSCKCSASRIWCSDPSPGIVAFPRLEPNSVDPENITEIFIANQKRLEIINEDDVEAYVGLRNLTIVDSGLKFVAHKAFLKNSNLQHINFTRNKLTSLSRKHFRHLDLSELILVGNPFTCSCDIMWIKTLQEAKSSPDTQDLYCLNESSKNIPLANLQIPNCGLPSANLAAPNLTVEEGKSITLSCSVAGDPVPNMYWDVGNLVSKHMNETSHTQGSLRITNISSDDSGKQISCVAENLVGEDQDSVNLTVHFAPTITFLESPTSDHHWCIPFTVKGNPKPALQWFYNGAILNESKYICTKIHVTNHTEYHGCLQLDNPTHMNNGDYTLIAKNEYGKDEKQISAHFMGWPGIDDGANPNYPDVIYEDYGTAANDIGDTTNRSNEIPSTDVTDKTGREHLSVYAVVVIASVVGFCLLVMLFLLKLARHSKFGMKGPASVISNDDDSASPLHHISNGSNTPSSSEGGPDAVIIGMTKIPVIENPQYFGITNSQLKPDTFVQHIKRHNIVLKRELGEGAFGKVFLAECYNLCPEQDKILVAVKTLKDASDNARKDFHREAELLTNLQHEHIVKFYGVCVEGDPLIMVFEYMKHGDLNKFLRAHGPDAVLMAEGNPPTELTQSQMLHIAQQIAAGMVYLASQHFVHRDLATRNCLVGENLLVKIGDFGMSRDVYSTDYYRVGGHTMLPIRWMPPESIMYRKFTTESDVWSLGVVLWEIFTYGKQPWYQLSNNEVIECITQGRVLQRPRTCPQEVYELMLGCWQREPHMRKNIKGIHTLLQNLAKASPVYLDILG

Sequence of Aurora kinase A (O14965 whole entry): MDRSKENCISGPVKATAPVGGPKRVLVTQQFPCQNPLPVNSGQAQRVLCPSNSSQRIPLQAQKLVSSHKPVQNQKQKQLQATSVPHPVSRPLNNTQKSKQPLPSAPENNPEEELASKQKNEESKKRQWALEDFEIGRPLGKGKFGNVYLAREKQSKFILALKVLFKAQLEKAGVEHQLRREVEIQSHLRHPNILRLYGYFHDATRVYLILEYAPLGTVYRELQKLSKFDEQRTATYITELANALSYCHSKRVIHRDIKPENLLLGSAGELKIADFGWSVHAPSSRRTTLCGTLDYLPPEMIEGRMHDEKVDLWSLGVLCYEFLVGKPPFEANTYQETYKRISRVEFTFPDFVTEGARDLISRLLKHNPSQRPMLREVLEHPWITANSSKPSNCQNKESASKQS
Sequence of Macrophage colony-stimulating factor 1 receptor (P07333 whole entry, canonical isoform): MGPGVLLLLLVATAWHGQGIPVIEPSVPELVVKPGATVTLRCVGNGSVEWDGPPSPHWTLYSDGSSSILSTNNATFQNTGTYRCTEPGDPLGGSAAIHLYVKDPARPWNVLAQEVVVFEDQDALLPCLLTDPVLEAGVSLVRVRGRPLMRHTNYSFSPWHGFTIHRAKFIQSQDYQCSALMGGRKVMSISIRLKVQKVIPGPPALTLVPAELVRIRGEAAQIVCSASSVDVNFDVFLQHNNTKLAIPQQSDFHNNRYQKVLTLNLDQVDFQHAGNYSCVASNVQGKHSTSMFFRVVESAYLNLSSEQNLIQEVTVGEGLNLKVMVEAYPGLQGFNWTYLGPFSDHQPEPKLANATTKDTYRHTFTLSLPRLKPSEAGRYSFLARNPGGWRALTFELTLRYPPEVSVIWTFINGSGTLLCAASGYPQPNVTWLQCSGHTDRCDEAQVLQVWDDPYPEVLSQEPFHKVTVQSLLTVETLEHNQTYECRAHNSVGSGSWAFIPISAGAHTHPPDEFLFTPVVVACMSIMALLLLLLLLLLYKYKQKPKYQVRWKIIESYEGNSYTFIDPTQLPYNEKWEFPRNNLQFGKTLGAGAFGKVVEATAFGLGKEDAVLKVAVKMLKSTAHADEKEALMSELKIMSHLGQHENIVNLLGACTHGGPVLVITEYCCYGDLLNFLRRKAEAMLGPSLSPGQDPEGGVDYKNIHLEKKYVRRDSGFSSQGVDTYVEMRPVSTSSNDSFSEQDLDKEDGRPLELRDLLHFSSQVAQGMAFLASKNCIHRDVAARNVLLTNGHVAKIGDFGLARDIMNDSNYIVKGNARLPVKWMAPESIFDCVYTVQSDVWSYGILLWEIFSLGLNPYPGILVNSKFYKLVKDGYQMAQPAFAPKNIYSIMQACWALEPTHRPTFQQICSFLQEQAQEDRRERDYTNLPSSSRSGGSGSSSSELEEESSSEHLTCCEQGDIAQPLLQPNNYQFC
Sequence of Dual specificity protein kinase CLK2 (P49760 whole entry): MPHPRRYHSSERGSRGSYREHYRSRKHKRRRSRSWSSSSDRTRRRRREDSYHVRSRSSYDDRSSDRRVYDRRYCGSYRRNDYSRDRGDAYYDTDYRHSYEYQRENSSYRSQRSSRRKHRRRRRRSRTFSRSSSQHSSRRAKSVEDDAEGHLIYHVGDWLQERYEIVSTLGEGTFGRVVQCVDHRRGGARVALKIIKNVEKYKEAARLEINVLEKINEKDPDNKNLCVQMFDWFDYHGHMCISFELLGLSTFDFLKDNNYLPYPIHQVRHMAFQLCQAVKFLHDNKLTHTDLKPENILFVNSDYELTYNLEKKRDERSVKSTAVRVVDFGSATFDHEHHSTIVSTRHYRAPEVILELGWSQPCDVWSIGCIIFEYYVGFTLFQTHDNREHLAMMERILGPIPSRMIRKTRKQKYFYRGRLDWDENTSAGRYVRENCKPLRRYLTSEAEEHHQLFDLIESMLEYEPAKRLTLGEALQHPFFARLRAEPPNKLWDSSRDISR
Sequence of Aurora kinase B (Q96GD4 whole entry): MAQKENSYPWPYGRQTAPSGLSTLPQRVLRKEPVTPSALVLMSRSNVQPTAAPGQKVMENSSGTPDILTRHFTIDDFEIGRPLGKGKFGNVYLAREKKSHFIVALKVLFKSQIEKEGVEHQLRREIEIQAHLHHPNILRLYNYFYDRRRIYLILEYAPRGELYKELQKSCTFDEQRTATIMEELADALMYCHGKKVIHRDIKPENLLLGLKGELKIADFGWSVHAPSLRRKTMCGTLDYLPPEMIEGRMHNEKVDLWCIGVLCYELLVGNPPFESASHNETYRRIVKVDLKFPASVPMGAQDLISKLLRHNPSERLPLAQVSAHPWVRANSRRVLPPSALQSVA
Sequence of Macrophage-stimulating protein receptor (Q04912 25-304 limits assumed): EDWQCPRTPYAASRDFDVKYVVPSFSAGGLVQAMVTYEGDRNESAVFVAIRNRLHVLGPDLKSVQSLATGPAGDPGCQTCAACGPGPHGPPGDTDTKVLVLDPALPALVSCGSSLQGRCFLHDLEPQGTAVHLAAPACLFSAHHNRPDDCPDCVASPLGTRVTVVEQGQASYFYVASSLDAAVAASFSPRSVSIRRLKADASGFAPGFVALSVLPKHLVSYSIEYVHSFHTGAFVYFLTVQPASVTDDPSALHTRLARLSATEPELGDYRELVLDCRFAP
Sequence of Macrophage-stimulating protein receptor (Q04912 310-1400 limits assumed): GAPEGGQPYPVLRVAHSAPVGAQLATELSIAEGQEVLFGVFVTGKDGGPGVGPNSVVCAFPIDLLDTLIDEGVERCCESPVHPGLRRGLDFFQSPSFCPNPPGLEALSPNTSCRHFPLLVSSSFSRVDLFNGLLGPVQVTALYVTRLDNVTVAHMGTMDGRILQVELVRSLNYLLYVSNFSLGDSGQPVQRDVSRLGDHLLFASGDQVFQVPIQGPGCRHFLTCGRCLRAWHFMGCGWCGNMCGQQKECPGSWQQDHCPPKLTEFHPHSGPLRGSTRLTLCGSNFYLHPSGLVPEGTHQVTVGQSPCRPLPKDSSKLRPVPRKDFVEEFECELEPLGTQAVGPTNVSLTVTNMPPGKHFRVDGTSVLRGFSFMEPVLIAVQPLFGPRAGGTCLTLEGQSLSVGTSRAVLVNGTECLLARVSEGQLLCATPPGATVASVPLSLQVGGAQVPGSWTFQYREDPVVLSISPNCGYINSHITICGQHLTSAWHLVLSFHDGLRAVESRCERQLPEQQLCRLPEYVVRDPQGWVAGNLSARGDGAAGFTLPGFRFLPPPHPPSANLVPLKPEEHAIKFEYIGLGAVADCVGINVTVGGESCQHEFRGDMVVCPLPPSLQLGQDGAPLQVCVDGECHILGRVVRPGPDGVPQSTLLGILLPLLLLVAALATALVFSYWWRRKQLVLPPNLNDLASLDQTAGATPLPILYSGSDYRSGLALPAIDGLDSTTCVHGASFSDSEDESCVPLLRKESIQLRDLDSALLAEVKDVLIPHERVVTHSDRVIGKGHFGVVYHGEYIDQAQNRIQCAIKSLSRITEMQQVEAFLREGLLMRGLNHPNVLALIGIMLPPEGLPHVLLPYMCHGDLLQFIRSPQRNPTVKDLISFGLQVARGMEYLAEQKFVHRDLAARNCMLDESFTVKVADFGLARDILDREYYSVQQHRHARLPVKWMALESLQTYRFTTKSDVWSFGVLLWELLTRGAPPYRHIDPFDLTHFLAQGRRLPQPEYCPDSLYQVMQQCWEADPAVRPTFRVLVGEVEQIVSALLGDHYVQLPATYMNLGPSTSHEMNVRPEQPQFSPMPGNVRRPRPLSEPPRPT
Sequence of Glycogen synthase kinase-3 alpha (P49840 whole entry): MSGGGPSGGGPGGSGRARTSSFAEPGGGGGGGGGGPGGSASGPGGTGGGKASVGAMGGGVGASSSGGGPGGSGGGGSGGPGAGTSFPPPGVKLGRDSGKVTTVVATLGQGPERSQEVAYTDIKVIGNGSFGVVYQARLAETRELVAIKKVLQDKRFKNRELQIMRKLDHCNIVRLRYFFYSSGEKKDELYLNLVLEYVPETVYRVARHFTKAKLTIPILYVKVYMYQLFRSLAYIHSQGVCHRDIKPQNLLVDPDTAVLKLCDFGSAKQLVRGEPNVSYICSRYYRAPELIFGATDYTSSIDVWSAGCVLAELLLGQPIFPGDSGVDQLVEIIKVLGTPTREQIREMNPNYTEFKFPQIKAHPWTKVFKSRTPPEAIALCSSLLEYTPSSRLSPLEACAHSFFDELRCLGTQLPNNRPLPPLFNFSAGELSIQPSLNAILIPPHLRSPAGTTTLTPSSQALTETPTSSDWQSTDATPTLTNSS

Nc1ncnc2c1N=C(c1ccccc1)CCN2 was tested, and the Ki [1] was 39.8 µM (active), the Ki [2] was 20 µM (active) and the Ki [3] was 2 µM (active). For the same molecule, the Ki [4] was > 100 µM (inactive), the Ki [5] was 15.8 µM (active) and the Ki [6] was 12.6 µM (active). The Ki [7] was 10 µM (active), the Ki [8] was 63.1 µM (active) and the Ki [9] was 1.58 µM (active). The Ki [10] was 100 µM (active), the Ki [11] was 31.6 µM (active) and the Ki [12] was 7.94 µM (active). For the same molecule, the Ki [13] was 12.6 µM (active), the Ki [14] was 12.6 µM (active) and the Ki [15] was 7.94 µM (active). For the same molecule, the Ki [16] was 3.98 µM (active), the Ki [17] was 100 µM (active) and the Ki [18] was 79.4 µM (active). For the same molecule, the Ki [19] was > 63.1 µM (inactive), the Ki [20] was 50.1 µM (active) and the Ki [21] was 31.6 µM (active). The Ki [22] was 12.6 µM (active), the Ki [23] was 20 µM (active) and the Ki [24] was > 100 µM (inactive). For the same molecule, the Ki [25] was 3.98 µM (active), the Ki [26] was 25.1 µM (active) and the Ki [27] was 0.398 µM (active). The Ki [28] was 39.8 µM (active), the Ki [29] was 2 µM (active) and the Ki [30] was 2 µM (active). For the same molecule, the Ki [31] was 39.8 µM (active), the Ki [32] was 0.794 µM (active) and the Ki [33] was 79.4 µM (active). For the same molecule, the Ki [34] was 10 µM (active), the Ki [35] was 79.4 µM (active) and the Ki [36] was 63.1 µM (active). For the same molecule, the Ki [37] was 39.8 µM (active), the Ki [38] was 15.8 µM (active) and the Ki [39] was 25.1 µM (active). The Ki [40] was 10 µM (active), the Ki [41] was 2 µM (active) and the Ki [42] was 6.31 µM (active). The Ki [43] was 31.6 µM (active), the Ki [44] was 15.8 µM (active) and the Ki [45] was 5.01 µM (active). The Ki [46] was 12.6 µM (active), the Ki [47] was 5.01 µM (active) and the Ki [48] was 12.6 µM (active). For the same molecule, the Ki [49] was 25.1 µM (active), the Ki [50] was 3.16 µM (active) and the Ki [51] was 63.1 µM (active).
